“Also recorded” adds a separate entry of the source.
Test system: otherwise healthy adults reporting regular illicit opioid misuse
Assay: Double-blind within-subject crossover inpatient study: subject-rated outcomes of intranasal oxycodone during tradipitant vs placebo maintenance (sample sessions)
Assay type: in vivo, human
Procedure: A double-blind, inpatient, approximately 6 week study employing a within-subject crossover design examines the effects of maintenance with tradipitant as compared to placebo on response to oxycodone. Study subjects include otherwise healthy adults reporting regular illicit opioid misuse, and history of intranasal opioid use without physical dependence.
Subjects are administered placebo or tradipitant (85 mg p.o., bid) on study days 3-17 with a washout period on days 18-23, followed by administration of placebo or tradipitant (85 mg p.o., bid) on study days 24-39. In the study, tradipitant/placebo administration is counterbalanced across subjects. On study days 3, […], 24, and 39, subjects participate in challenge sessions (day 1 and steady state) in which they receive 0, 5, 10, or 20 mg intranasal (IN) oxycodone at 1 hr. intervals, after which effect of tradipitant on analgesia in humans is evaluated. On study days 2, 8, 11, 15, 29, 32, and 36, subjects participate in sample sessions in which subjects are administered 0, 15, or 30 mg IN oxycodone, after which effect of tradipitant on subject-rated outcomes is evaluated. Such subject-rated outcomes include responses to questions including “how much do you like the drug,” “does the drug have any good effects,” “do you feel any drug effect,” and “how much do you desire opiates right now?” Further, on study days 9, 12, 16, 30, 33, and 37, subjects participate in choice sessions, in which effect of tradipitant on oxycodone self-administration is evaluated.

[1] = 0, 15 or 30 mg IN oxycodone, difference from 0 mg
[2] = tradipitant 85 mg p.o. bid maintenance, at some opioid drug doses, e.g. 15 mg IN oxycodone, FIGS. 1-3

SMILES | effect of oxycodone dose on trough scores for desire for opioids (0, 15 or 30 mg IN oxycodone) | peak ratings of good effects [1] | peak ratings of liking for the drug [1] | peak ratings of overall drug effect [1] | desire for opioids (cravings), trough scores ("how much do you desire opiates right now?") (tradipitant 85 mg p.o. bid maintenance compared to placebo maintenance, 0, 15 or 30 mg IN oxycodone, FIG. 4) | perception of how good the effects of the drug were [2] | perception of how much of a drug effect was felt [2] | perception of how much the opioid drug was liked [2] | pleasurable and drug seeking sensations (tradipitant maintenance, at some doses)
COc1ccc2c3c1O[C@H]1C(=O)CC[C@@]4(O)[C@@H](C2)N(C)CC[C@]314 [Oxycodone, oxycodone, reference compound] | no significant effect | significant and dose-dependent increases | significant and dose-dependent increases | significant and dose-dependent increases |  |  |  |  | 
O=C(c1ccccc1Cl)c1cccnc1-c1nnn(Cc2cc(C(F)(F)F)cc(C(F)(F)F)c2)c1-c1ccncc1 [tradipitant] |  |  |  |  | diminished; also recorded: reduces | decreases | decreases | decreases | decreases

Source: patent US20240390353A1, “METHOD OF TREATMENT WITH TRADIPITANT” (Vanda Pharmaceuticals Inc., priority 2018, published 2024)
